For the experiment, the target named is acetyl-CoA carboxylase (ACC, POD-2) (Caenorhabditis elegans, UniProt H2L0M0). Briefly: real-time HPLC and NMR kinetics of malonyl-CoA formation with partially purified enzyme extract; Ki estimated from the change in KM. In kind it is biochemical.

As a reminder, the Ki is a measure of affinity in units of concentration, obtained from inhibition or displacement.

Structures are written as SMILES.

Sequence of acetyl-CoA carboxylase (ACC, POD-2) (H2L0M0 entry or part of it): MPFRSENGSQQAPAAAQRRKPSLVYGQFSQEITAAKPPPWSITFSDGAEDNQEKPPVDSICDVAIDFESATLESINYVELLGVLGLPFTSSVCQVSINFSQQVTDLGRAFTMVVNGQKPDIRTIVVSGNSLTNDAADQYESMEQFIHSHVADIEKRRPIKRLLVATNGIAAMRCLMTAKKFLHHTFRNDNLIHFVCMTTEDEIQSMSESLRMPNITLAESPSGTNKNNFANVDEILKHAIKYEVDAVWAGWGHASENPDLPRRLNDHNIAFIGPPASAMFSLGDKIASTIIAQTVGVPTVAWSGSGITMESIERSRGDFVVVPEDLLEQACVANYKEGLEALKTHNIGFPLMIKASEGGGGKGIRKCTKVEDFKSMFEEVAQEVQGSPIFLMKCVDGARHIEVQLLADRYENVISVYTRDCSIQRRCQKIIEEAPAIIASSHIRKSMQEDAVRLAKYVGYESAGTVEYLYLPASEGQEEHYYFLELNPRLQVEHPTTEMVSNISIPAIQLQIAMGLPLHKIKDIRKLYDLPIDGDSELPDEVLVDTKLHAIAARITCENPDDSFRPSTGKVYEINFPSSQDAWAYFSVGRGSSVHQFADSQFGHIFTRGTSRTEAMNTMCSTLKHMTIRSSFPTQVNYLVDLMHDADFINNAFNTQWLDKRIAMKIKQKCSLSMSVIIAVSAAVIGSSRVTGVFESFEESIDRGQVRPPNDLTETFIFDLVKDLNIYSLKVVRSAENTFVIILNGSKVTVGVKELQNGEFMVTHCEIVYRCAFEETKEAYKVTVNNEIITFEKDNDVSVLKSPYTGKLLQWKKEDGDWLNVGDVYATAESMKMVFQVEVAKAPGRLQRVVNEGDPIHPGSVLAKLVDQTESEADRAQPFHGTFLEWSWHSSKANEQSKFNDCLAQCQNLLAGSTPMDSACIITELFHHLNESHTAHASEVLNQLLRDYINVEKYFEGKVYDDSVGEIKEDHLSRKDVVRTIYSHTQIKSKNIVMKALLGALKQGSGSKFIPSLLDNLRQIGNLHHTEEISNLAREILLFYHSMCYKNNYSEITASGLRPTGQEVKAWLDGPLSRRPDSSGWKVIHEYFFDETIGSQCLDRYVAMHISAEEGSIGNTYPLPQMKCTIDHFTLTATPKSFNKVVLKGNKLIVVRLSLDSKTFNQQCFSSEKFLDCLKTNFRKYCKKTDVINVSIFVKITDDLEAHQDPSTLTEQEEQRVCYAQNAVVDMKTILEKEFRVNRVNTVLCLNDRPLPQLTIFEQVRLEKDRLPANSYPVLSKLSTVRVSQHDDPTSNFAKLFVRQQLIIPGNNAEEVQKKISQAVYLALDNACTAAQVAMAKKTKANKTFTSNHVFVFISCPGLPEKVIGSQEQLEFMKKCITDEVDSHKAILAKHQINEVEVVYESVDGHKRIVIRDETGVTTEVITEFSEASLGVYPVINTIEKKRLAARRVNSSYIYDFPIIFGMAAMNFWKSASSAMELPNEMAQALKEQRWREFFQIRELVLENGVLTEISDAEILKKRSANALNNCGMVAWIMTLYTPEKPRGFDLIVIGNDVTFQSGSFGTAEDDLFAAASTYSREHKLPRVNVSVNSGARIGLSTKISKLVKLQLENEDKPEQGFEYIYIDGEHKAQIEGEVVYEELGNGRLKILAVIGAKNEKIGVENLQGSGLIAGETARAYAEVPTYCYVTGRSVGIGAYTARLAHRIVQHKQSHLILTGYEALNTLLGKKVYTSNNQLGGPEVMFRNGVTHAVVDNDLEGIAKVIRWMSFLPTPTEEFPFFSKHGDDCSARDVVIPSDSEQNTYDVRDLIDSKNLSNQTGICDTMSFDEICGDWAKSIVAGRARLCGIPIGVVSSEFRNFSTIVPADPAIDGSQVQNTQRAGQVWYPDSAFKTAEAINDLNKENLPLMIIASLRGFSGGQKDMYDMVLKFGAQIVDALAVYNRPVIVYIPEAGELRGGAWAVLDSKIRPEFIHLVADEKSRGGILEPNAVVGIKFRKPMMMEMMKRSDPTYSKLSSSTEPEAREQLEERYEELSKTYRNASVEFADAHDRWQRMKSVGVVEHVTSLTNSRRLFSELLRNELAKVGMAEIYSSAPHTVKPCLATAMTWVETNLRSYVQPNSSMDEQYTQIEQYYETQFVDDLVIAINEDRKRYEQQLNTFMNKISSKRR

As for `C=CCCCCCCCCCCC[C@@H](O)C[C@@H](O)COC(C)=O` [avocadene acetate], the Ki is approximately 12.5 µM.
